The target of assay [1] is T1, Cyclin-dependent kinase 2 (Homo sapiens, UniProt P24941). As to the kind of experiment: Binding affinity to N-terminal His-tagged recombinant human CDK2 (1 to 298 amino acid residues) expressed in Escherichia coli BL21 assessed as inhibition of interaction with cyclin A3 by measuring HHASPRK phosphorylation at 100 uM by ADP-Glo Max assay relative to control. For orientation: ADP-Glo first removes unused ATP, then detects ADP through luciferase.

Assay [2] deals with A549. As to the kind of experiment: Cell cycle arrest in human A549 cells assessed as accumulation at S phase at 25 uM after 72 hrs by propidium iodide staining-based flow cytometric analysis (reference value: 11.53%). The format is functional.
The test system of assay [3] is A549. As to the kind of experiment: Cell cycle arrest in human A549 cells assessed as accumulation at G2/M phase at 50 uM after 72 hrs by propidium iodide staining-based flow cytometric analysis (reference value: 19.79%). The format is functional. For orientation: A flow cytometer gives signals particle by particle.
The subject of assay [4] is A549. As to the kind of experiment: Cell cycle arrest in human A549 cells assessed as accumulation at G0/G1 phase at 50 uM after 72 hrs by propidium iodide staining-based flow cytometric analysis (reference value: 68.68%). The assay is classed as functional.
Another assay concerns MDA-MB-231. As to the kind of experiment: Cytotoxicity against human MDA-MB-231 cells assessed as cell viability after 72 hrs by MTS assay. The assay is classed as functional, cell-based. (In general: Tetrazolium assays rely on reduction of a dye to a coloured formazan, in cell work by metabolically active cells.)
Assay [5] has as its system A549. As to the kind of experiment: Cell cycle arrest in human A549 cells assessed as accumulation at S phase at 200 uM after 72 hrs by propidium iodide staining-based flow cytometric analysis (reference value: 11.53%). The format is functional.
Another assay has as its system HepG2. As to the kind of experiment: Cytotoxicity against human HepG2 cells assessed as cell viability after 72 hrs by MTS assay. The assay is classed as functional, cell-based.
Assay [6] concerns A549. As to the kind of experiment: Cytotoxicity against human A549 cells assessed as cell viability after 72 hrs by MTS assay. The assay is classed as functional, cell-based.
Assay [7] concerns A549. As to the kind of experiment: Cell cycle arrest in human A549 cells assessed as accumulation at G0/G1 phase at 10 uM after 72 hrs by propidium iodide staining-based flow cytometric analysis (reference value: 68.68%). The format is functional.
Assay [8] has as its target Cyclin-dependent kinase 2 (Homo sapiens, UniProt P24941, R150A). As to the kind of experiment: Binding affinity to human CDK2 R150A mutant expressed in Escherichia coli BL21 assessed as inhibition of interaction with cyclin A3 by measuring HHASPRK phosphorylation by ADP-Glo Max assay.
Assay [9] concerns A549. As to the kind of experiment: Cell cycle arrest in human A549 cells assessed as accumulation at S phase at 50 uM after 72 hrs by propidium iodide staining-based flow cytometric analysis (reference value: 11.53%). The format is functional.
The test system of assay [10] is A549. As to the kind of experiment: Cell cycle arrest in human A549 cells assessed as accumulation at G2/M phase at 10 uM after 72 hrs by propidium iodide staining-based flow cytometric analysis (reference value: 19.79%). The format is functional.
Assay [11] concerns A549. As to the kind of experiment: Cell cycle arrest in human A549 cells assessed as accumulation at G2/M phase at 200 uM after 72 hrs by propidium iodide staining-based flow cytometric analysis (reference value: 19.79%). The assay is classed as functional.
For assay [12], the target named is T1, Cyclin-dependent kinase 2. As to the kind of experiment: Binding affinity to N-terminal His-tagged recombinant human CDK2 (1 to 298 amino acid residues) expressed in Escherichia coli BL21 assessed as inhibition of interaction with cyclin A3 by measuring 250 uM HHASPRK phosphorylation by ADP-Glo Max assay in presence of 750 uM ATP.
Assay [13] relates to A549. As to the kind of experiment: Cell cycle arrest in human A549 cells assessed as accumulation at S phase at 10 uM after 72 hrs by propidium iodide staining-based flow cytometric analysis (reference value: 11.53%). The format is functional.
Assay [14] relates to A549. As to the kind of experiment: Cell cycle arrest in human A549 cells assessed as accumulation at G2/M phase at 25 uM after 72 hrs by propidium iodide staining-based flow cytometric analysis (reference value: 19.79%). The assay is classed as functional.
The target in assay [15] is Cyclin-dependent kinase 2 (Homo sapiens, UniProt P24941, Y180A). As to the kind of experiment: Binding affinity to human CDK2 Y180A mutant expressed in Escherichia coli BL21 assessed as inhibition of interaction with cyclin A3 by measuring HHASPRK phosphorylation by ADP-Glo Max assay.
Assay [16] has as its target T1, Cyclin-dependent kinase 2. As to the kind of experiment: Binding affinity to N-terminal His-tagged recombinant human CDK2 (1 to 298 amino acid residues) expressed in Escherichia coli BL21 assessed as inhibition of interaction with cyclin A3 by measuring 2.5 mM HHASPRK phosphorylation by ADP-Glo Max assay in presence of 75 uM ATP.
For assay [17], the target named is T1, Cyclin-dependent kinase 2. As to the kind of experiment: Binding affinity to N-terminal His-tagged recombinant human CDK2 (1 to 298 amino acid residues) expressed in Escherichia coli BL21 assessed as inhibition of interaction with cyclin A3 by measuring 250 uM HHASPRK phosphorylation by ADP-Glo Max assay in presence of 375 uM ATP.
Assay [18] relates to A549. As to the kind of experiment: Cell cycle arrest in human A549 cells assessed as accumulation at G0/G1 phase at 200 uM after 72 hrs by propidium iodide staining-based flow cytometric analysis (reference value: 68.68%). The format is functional.
In assay [19] the target is T1, Cyclin-dependent kinase 2. As to the kind of experiment: Binding affinity to N-terminal His-tagged recombinant human CDK2 (1 to 298 amino acid residues) expressed in Escherichia coli BL21 assessed as inhibition of interaction with cyclin A3 by measuring 1.25 mM HHASPRK phosphorylation by ADP-Glo Max assay in presence of 75 uM ATP.
Assay [20] concerns the target T1, Cyclin-dependent kinase 2. As to the kind of experiment: Binding affinity to N-terminal His-tagged recombinant human CDK2 (1 to 298 amino acid residues) expressed in Escherichia coli BL21 assessed as inhibition of interaction with cyclin A3 by measuring 250 uM HHASPRK phosphorylation by ADP-Glo Max assay in presence of 75 uM ATP.
The target of assay [21] is T1, Cyclin-dependent kinase 2. As to the kind of experiment: Binding affinity to GST-tagged recombinant human CDK2 (1 to 298 amino acid residues) expressed in Escherichia coli BL21 assessed as inhibition of interaction with His-tagged cyclin A3 preincubated overnight with GST-tagged protein followed by His-tagged cyclin A3 addition by GST pull down assay.
Assay [22] deals with A549. As to the kind of experiment: Cell cycle arrest in human A549 cells assessed as accumulation at G0/G1 phase at 25 uM after 72 hrs by propidium iodide staining-based flow cytometric analysis (reference value: 68.68%). The format is functional.

The structures appear in SMILES notation.

In the case of `O=C(CSc1nc2ccc(NC(=O)CSCC(=O)Nc3ccc4ccccc4c3)cc2s1)NCCOc1ccccc1`, the inhibition in assay [1] was < 5%.
In the case of `Cc1cc(C)nc(NS(=O)(=O)c2ccc(NC(=O)CCCCC(=O)Nc3ccc(S(=O)(=O)Nc4nc(C)cc(C)n4)cc3)cc2)n1`, the inhibition in assay [1] is 38%.
For `CSc1ccc(/C=N/c2cc([N+](=O)[O-])ccc2O)cc1`, the Activity is 21.91% with A549 [2]; 12.99% with A549 [3]; 60.8% with A549 [4]; “Dose-dependent effect” in the assay on MDA-MB-231; 41.3% in the assay with A549 [5]; “Dose-dependent effect” in the assay on HepG2. Also, the Activity result in the assay with A549 [6] is “Dose-dependent effect”; in the assay with A549 [7], 66.03%; with A549 [9], 26.21%; with A549 [10] it was 18.76%; in the assay on A549 [11], 15.2%; in the assay on A549 [13], 15.21%. For the same molecule, the Activity with A549 [14] is 12.83%; with A549 [18] it was 43.49%; in assay [21] it was “Dose-dependent effect”; with A549 [22], 65.26%. Besides, the IC50 amounted to 885 µM in assay [8]; 55.1 µM in assay [12]; 151 µM in [15]; 69.8 µM in assay [16]; 78.3 µM in [17]; 58.1 µM in [19]. In addition, the IC50 in assay [20] came to 52.1 µM. The inhibition in assay [1] turned out to be 65.5%.
For the molecule `COc1ccccc1OCCOc1ccccc1/C=c1\sc2n(c1=O)C(c1ccccc1)C(C(=O)Nc1ccccc1)=C(C)N=2` (centres undefined), the inhibition in [1] is < 5%.
For `Cc1ccccc1C(=O)N(Cc1ccc(C(F)(F)F)cc1)c1ccc(CC(=O)NCc2ccc(F)cc2)cc1`, in [1], the inhibition stood at 37.5%.
On to `CCOc1cc(C(=O)Nc2ccc(S(=O)(=O)Nc3nc(C)cc(C)n3)cc2)cc(OCC)c1OCC`, for which the inhibition in [1] worked out at 62.3%. Besides, the IC50 in assay [20] amounted to 105 µM.
With `CCN(C(=O)CCNC(=O)Cn1cnc2ccccc2c1=O)c1cccc(C(F)(F)F)c1`, in [1], the inhibition is 8.39%.
Consider `CCOC(=O)C(Cc1ccc(OC)c([N+](=O)[O-])c1)NC(=O)CCC(=O)Nc1ccc(S(N)(=O)=O)cc1` (centres undefined), for which the inhibition in [1] was < 5%.
For the molecule `Cn1c(=O)[nH]c(=O)c2c1nc(N/N=C1/C(=O)Nc3ccccc31)n2CC(O)COc1ccccc1` (centres undefined), the inhibition in assay [1] is < 5%.
In the case of `Cc1[nH]c2ccccc2c1/C=N/c1ccccc1C(=O)O`, the inhibition in assay [1] is < 5%.
Still for that read-out and setting: next, `Cc1ccc(S(=O)(=O)Nc2ccc(C(=O)N3N=C(c4c(-c5ccccc5)c5cc(Br)ccc5[nH]c4=O)CC3c3ccccc3)cc2)cc1` (centres undefined): < 5%; `CN1C(=O)c2cccc3c(S(=O)(=O)NCCC(=O)O)ccc1c23`: 5.54%.
As to `OC(CN1CCN(CC(O)Cn2c3ccc(Br)cc3c3cc(Br)cc(Br)c32)CC1)Cn1c2ccccc2c2ccccc21` (centres undefined), the inhibition in assay [1] came to 31%.
Take `CC(=O)C1=C(O)C(=O)N(CO)C1c1ccccc1` (centres undefined): the inhibition in [1] was < 5%.
As for `C/C(Cc1ccccc1)=N\Nc1nnc2c(n1)[nH]c1ccccc12`, the inhibition in [1] stood at 35.2%.

Usually inhibition stands for the relative decrease from the control value, in per cent. For orientation: IC50 means the concentration that gives 50% inhibition.

The values are drawn from ChEMBL document CHEMBL3616388, “Discovery of novel nonpeptide allosteric inhibitors interrupting the interaction of CDK2/cyclin A3 by virtual screening and bioassays” (Bioorg Med Chem Lett, 2015).
